# Measurements: ChEMBL document CHEMBL3885881, “DrugMatrix”
# Species: Rattus norvegicus
# Test: DrugMatrix - Regimen: Daily Repeat
# Assay type: toxicity, organism-based, Sprague-Dawley
# Set-up: regimen Daily Repeat, gender Male, age 6-8 weeks
# Details: in vivo, po, 10 mg/kg, route oral GAVAGE, dose level Low, […]; for ABSOLUTE BASOPHIL / ABSOLUTE EOSINOPHIL / ABSOLUTE LYMPHOCYTE / ABSOLUTE MONOCYTE / ABSOLUTE SEGMENTED NEUTROPHIL / BASOPHIL / EOSINOPHIL / ERYTHROCYTE COUNT / HEMATOCRIT / HEMOGLOBIN / LEUKOCYTE COUNT / LYMPHOCYTE / MEAN CORPUSCULAR HEMOGLOBIN / MEAN CORPUSCULAR HEMOGLOBIN CONCENTRATION / MEAN CORPUSCULAR VOLUME / MONOCYTE / NEUTROPHIL / NUCLEATED RED BLOOD CELLS / PLATELET COUNT: tissue Blood; for ALANINE AMINOTRANSFERASE / ALBUMIN / ALKALINE PHOSPHATASE / ASPARTATE AMINOTRANSFERASE / BLOOD UREA NITROGEN / CARBON DIOXIDE / CHLORIDE / CHOLESTEROL / CREATINE PHOSPHOKINASE / CREATININE / GLUCOSE / LACTATE DEHYDROGENASE / LIPASE / PHOSPHORUS / POTASSIUM / SODIUM / TOTAL BILIRUBIN / TOTAL PROTEIN / URIC ACID: tissue Plasma
compound,measurement,setting,value
COC(=O)Nc1nc2cc(C(=O)c3ccc(F)cc3)ccc2[nH]1 [FLUBENDAZOLE],ABSOLUTE BASOPHIL,"72 h, time 3 day",0 CELLS/uL
same,ABSOLUTE EOSINOPHIL,"72 h, time 3 day",47.67 CELLS/uL
same,ABSOLUTE LYMPHOCYTE,"72 h, time 3 day",13609.33 CELLS/uL
same,ABSOLUTE MONOCYTE,"72 h, time 3 day",47.67 CELLS/uL
same,ABSOLUTE SEGMENTED NEUTROPHIL,"72 h, time 3 day",1162 CELLS/uL
same,BASOPHIL,"72 h, time 3 day",0%
same,EOSINOPHIL,"72 h, time 3 day",0.33%
same,ERYTHROCYTE COUNT,"72 h, time 3 day",5.56 x10E6/uL
same,HEMATOCRIT,"72 h, time 3 day",35.83%
same,HEMOGLOBIN,"72 h, time 3 day",14.1 G/DL
same,LEUKOCYTE COUNT,"72 h, time 3 day",14.87 x10E3/uL
same,LYMPHOCYTE,"72 h, time 3 day",91.33%
same,MEAN CORPUSCULAR HEMOGLOBIN,"72 h, time 3 day",25.37 pg
same,MEAN CORPUSCULAR HEMOGLOBIN CONCENTRATION,"72 h, time 3 day",39.33 G/DL
same,MEAN CORPUSCULAR VOLUME,"72 h, time 3 day",64.4 fL
same,MONOCYTE,"72 h, time 3 day",0.33%
same,NEUTROPHIL,"72 h, time 3 day",8%
same,NUCLEATED RED BLOOD CELLS,"72 h, time 3 day",0 /100WBC
same,PLATELET COUNT,"72 h, time 3 day",1248.33 x10E3/uL
same,ALANINE AMINOTRANSFERASE,"72 h, time 3 day",66.33 u/L
same,ALBUMIN,"72 h, time 3 day",4.3 G/DL
same,ALKALINE PHOSPHATASE,"72 h, time 3 day",384.67 u/L
same,ASPARTATE AMINOTRANSFERASE,"72 h, time 3 day",89 u/L
same,BLOOD UREA NITROGEN,"72 h, time 3 day",14.67 mg/dL
same,CARBON DIOXIDE,"72 h, time 3 day",28.67 mmol/L
same,CHLORIDE,"72 h, time 3 day",103.67 MEQ/L
same,CHOLESTEROL,"72 h, time 3 day",73 mg/dL
same,CREATINE PHOSPHOKINASE,"72 h, time 3 day",180.67 u/L
same,CREATININE,"72 h, time 3 day",0.2 mg/dL
same,GLUCOSE,"72 h, time 3 day",149.33 mg/dL
same,LACTATE DEHYDROGENASE,"72 h, time 3 day",206 u/L
same,LIPASE,"72 h, time 3 day",10.67 u/L
same,PHOSPHORUS,"72 h, time 3 day",13.07 mg/dL
same,POTASSIUM,"72 h, time 3 day",6.75 MEQ/L
same,SODIUM,"72 h, time 3 day",148 MEQ/L
same,TOTAL BILIRUBIN,"72 h, time 3 day",0.17 mg/dL
same,TOTAL PROTEIN,"72 h, time 3 day",5.6 G/DL
same,URIC ACID,"72 h, time 3 day",2.37 mg/dL
same,ABSOLUTE BASOPHIL,"120 h, time 5 day",0 CELLS/uL
same,ABSOLUTE EOSINOPHIL,"120 h, time 5 day",0 CELLS/uL
same,ABSOLUTE LYMPHOCYTE,"120 h, time 5 day",11922.67 CELLS/uL
same,ABSOLUTE MONOCYTE,"120 h, time 5 day",87 CELLS/uL
same,ABSOLUTE SEGMENTED NEUTROPHIL,"120 h, time 5 day",723.67 CELLS/uL
same,BASOPHIL,"120 h, time 5 day",0%
same,EOSINOPHIL,"120 h, time 5 day",0%
same,ERYTHROCYTE COUNT,"120 h, time 5 day",5.65 x10E6/uL
same,HEMATOCRIT,"120 h, time 5 day",34.27%
same,HEMOGLOBIN,"120 h, time 5 day",13.7 G/DL
same,LEUKOCYTE COUNT,"120 h, time 5 day",12.73 x10E3/uL
same,LYMPHOCYTE,"120 h, time 5 day",93.67%
same,MEAN CORPUSCULAR HEMOGLOBIN,"120 h, time 5 day",24.3 pg
same,MEAN CORPUSCULAR HEMOGLOBIN CONCENTRATION,"120 h, time 5 day",40.03 G/DL
same,MEAN CORPUSCULAR VOLUME,"120 h, time 5 day",60.63 fL
same,MONOCYTE,"120 h, time 5 day",0.67%
same,NEUTROPHIL,"120 h, time 5 day",5.67%
same,NUCLEATED RED BLOOD CELLS,"120 h, time 5 day",0.33 /100WBC
same,PLATELET COUNT,"120 h, time 5 day",1117 x10E3/uL
same,ALANINE AMINOTRANSFERASE,"120 h, time 5 day",57.33 u/L
same,ALBUMIN,"120 h, time 5 day",4.23 G/DL
same,ALKALINE PHOSPHATASE,"120 h, time 5 day",373.33 u/L
same,ASPARTATE AMINOTRANSFERASE,"120 h, time 5 day",85.33 u/L
same,BLOOD UREA NITROGEN,"120 h, time 5 day",15.67 mg/dL
same,CARBON DIOXIDE,"120 h, time 5 day",23.33 mmol/L
same,CHLORIDE,"120 h, time 5 day",105 MEQ/L
same,CHOLESTEROL,"120 h, time 5 day",58.67 mg/dL
same,CREATINE PHOSPHOKINASE,"120 h, time 5 day",240.33 u/L
same,CREATININE,"120 h, time 5 day",0.22 mg/dL
same,GLUCOSE,"120 h, time 5 day",160.33 mg/dL
same,LACTATE DEHYDROGENASE,"120 h, time 5 day",156.67 u/L
same,LIPASE,"120 h, time 5 day",9.33 u/L
same,PHOSPHORUS,"120 h, time 5 day",12.1 mg/dL
same,POTASSIUM,"120 h, time 5 day",7.18 MEQ/L
same,SODIUM,"120 h, time 5 day",146.47 MEQ/L
same,TOTAL BILIRUBIN,"120 h, time 5 day",0.2 mg/dL
same,TOTAL PROTEIN,"120 h, time 5 day",5.97 G/DL
same,URIC ACID,"120 h, time 5 day",1.9 mg/dL
